System: human PBMC cytotoxicity, % cell control
Assay: human PBMC cytotoxicity, dose response, cytotoxicity control for HIV-1 antiviral lead project, cell-based, primary PBMCs, TC50 (AID 504530)

Structure (SMILES) | CC50
Cc1c2c(=O)n(-c3nc4ccccc4s3)nc-2cc(O)n1Cc1cccnc1 | 2.15 µM
Cc1c2c(=O)n(-c3nc4ccccc4s3)nc-2cc(O)n1CCc1ccc(O)cc1 | 2.11 µM
Cc1c2c(=O)n(-c3nc4ccccc4s3)nc-2cc(O)n1CCc1cccs1 | 71.2 µM
Cc1c2c(=O)n(-c3nc4ccccc4s3)nc-2cc(O)n1Cc1ccncc1 | 2.4 µM
Cc1c2c(=O)n(-c3nc4ccccc4s3)nc-2cc(O)n1Cc1ccccc1Cl | 38.9 µM
Cc1c2c(=O)n(-c3nc4ccccc4s3)nc-2cc(O)n1CCC(C)C | 41.1 µM
Cc1c2c(=O)n(-c3nc4ccccc4s3)nc-2cc(O)n1Cc1ccc(F)cc1 | 18.7 µM
Cc1c2c(=O)n(-c3nc4ccccc4s3)nc-2cc(O)n1C1CC1 | 2.6 µM
COc1ccc(CCn2c(O)cc3nn(-c4nc5ccccc5s4)c(=O)c-3c2C)cc1 | 60 µM
COc1ccc(Cn2c(O)cc3nn(-c4nc5ccccc5s4)c(=O)c-3c2C)cc1 | 19.2 µM
Cc1c2c(=O)n(-c3nc4ccccc4s3)nc-2cc(O)n1Cc1cccs1 | 25.7 µM
COc1ccccc1Cn1c(O)cc2nn(-c3nc4ccccc4s3)c(=O)c-2c1C | 22 µM

— PubChem BioAssay AID504530 (Southern Research Specialized Biocontainment Screening …, 2011)
